Measured values from ChEMBL document CHEMBL4699627, “Synthesis and biological screening of thiosemicarbazones of substituted 3-acetylcoumarins having d-glucose moiety” (Bioorg Med Chem Lett, 2020).
Values after ≈ are worked out from the molar mass of the structure shown.

How the values were obtained:
[1] = tested on: Mycobacterium tuberculosis; assay: Antimycobacterial activity against Mycobacterium tuberculosis H37Ra ATCC 25177 assessed as growth inhibition incubated for 7 days measured after 48 hrs treatment with resazurin by alamarblue assay; assay type: functional; conditions: H37Ra ATCC 25177, 216 h, time 9 day
[2] = tested on: Mycobacterium tuberculosis; assay: Antimycobacterial activity against Mycobacterium tuberculosis H37Ra ATCC 25177 assessed as bacterial killing incubated for 4 weeks by CLSI standard plate count method; assay type: functional; conditions: H37Ra ATCC 25177, 672 h
Saccharomyces cerevisiae = assay: Antifungal activity against Saccharomyces cerevisiae SH 20; assay type: functional
Pseudomonas aeruginosa = assay: Antibacterial activity against Pseudomonas aeruginosa ATCC […] assessed as reduction in bacterial growth; assay type: functional
Salmonella typhimurium = assay: Antibacterial activity against Salmonella typhimurium ATCC 14028 assessed as reduction in bacterial growth; assay type: functional, Salmonella enterica subsp. enterica serovar Typhimurium; conditions: Salmonella enterica
Aspergillus flavus = assay: Antifungal activity against Aspergillus flavus ATCC 204304; assay type: functional
[3] = tested on: Staphylococcus epidermidis; assay: Antibacterial activity against Staphylococcus epidermidis ATCC 12228 assessed as reduction in bacterial growth; assay type: functional
Staphylococcus aureus = assay: Antibacterial activity against Staphylococcus aureus ATCC 11632 assessed as reduction in bacterial growth; assay type: functional
Candida albicans = assay: Antifungal activity against Candida albicans ATCC 7754; assay type: functional
Aspergillus niger = assay: Antifungal activity against Aspergillus niger ATCC 439; assay type: functional
Escherichia coli = assay: Antibacterial activity against Escherichia coli ATCC 25922 assessed as reduction in bacterial growth; assay type: functional
Bacillus subtilis = assay: Antibacterial activity against Bacillus subtilis ATCC 11774 assessed as reduction in bacterial growth; assay type: functional
Klebsiella pneumoniae = assay: Antibacterial activity against Klebsiella pneumoniae ATCC 4352 assessed as reduction in bacterial growth; assay type: functional
PC-3 = assay: Cytotoxicity against human PC-3 cells incubated for 3 days by MTT assay; assay type: functional, cell-based; conditions: PC-3, 72 h
MDA-MB-231 = assay: Cytotoxicity against human MDA-MB-231 cells incubated for 3 days by MTT assay; assay type: functional, cell-based; conditions: MDA-MB-231, 72 h
Rhodesain = Rhodesain (Trypanosoma brucei rhodesiense, UniProt Q95PM0); assay: Inhibition of Trypanosoma brucei rhodesiense rhodesain using fluorogenic substrate Z-Phe-Arg-aminomethylcoumarin as substrate by fluorescence assay
Sequence of Rhodesain (Q95PM0 whole entry): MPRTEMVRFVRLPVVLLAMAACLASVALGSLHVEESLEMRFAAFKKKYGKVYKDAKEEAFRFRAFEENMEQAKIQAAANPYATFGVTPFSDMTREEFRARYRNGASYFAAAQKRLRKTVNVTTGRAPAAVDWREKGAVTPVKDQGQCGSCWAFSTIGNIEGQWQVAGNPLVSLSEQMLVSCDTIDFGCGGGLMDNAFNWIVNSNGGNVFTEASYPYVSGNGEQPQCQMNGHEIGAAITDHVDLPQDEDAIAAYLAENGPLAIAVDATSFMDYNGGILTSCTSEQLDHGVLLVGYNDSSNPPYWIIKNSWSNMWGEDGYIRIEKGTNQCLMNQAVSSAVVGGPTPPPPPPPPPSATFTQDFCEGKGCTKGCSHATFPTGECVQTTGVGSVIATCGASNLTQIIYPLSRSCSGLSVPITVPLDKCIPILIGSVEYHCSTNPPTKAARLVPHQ

| Structure (SMILES) | MIC [1] | MBC [2] | MIC (Saccharomyces cerevisiae) | MIC (Pseudomonas aeruginosa) | MIC (Salmonella typhimurium) | MIC (Aspergillus flavus) | MIC [3] | MIC (Staphylococcus aureus) | MIC (Candida albicans) | MIC (Aspergillus niger) | MIC (Escherichia coli) | MIC (Bacillus subtilis) | MIC (Klebsiella pneumoniae) | IC50 (PC-3) | IC50 (MDA-MB-231) | IC50 (Rhodesain) |
| --- | --- | --- | --- | --- | --- | --- | --- | --- | --- | --- | --- | --- | --- | --- | --- | --- |
| NC(=S)N/N=C/c1ccc(OC(=O)CC2SC(=O)NC2=O)cc1 (centres undefined) | 0.031 µg/mL (≈ 0.088 µM) | 0.063 µg/mL (≈ 0.179 µM) | – | – | – | – | – | – | – | – | – | – | – | – | – | – |
| CC(=O)OC[C@H]1O[C@@H](NC(=S)N/N=C(\C)c2cc3cc(Cl)ccc3oc2=O)[C@H](OC(C)=O)[C@@H](OC(C)=O)[C@@H]1OC(C)=O | – | – | 50 µM (≈ 31.3 µg/mL) | 3.12 µM (≈ 1.96 µg/mL) | 50 µM (≈ 31.3 µg/mL) | 12.5 µM (≈ 7.83 µg/mL) | > 100 µM | > 100 µM | 1.56 µM (≈ 0.977 µg/mL) | 100 µM (≈ 62.6 µg/mL) | 25 µM (≈ 15.7 µg/mL) | – | – | – | – | – |
| CC(=O)OC[C@H]1O[C@@H](NC(=S)N/N=C(\C)c2cc3cc([N+](=O)[O-])ccc3oc2=O)[C@H](OC(C)=O)[C@@H](OC(C)=O)[C@@H]1OC(C)=O | – | – | 25 µM (≈ 15.9 µg/mL) | 1.56 µM (≈ 0.993 µg/mL) | 100 µM (≈ 63.7 µg/mL) | 100 µM (≈ 63.7 µg/mL) | 12.5 µM (≈ 7.96 µg/mL) | 12.5 µM (≈ 7.96 µg/mL) | 25 µM (≈ 15.9 µg/mL) | 12.5 µM (≈ 7.96 µg/mL) | 3.12 µM (≈ 1.99 µg/mL) | > 100 µM | 50 µM (≈ 31.8 µg/mL) | – | – | – |
| Clc1ccc(COC(Cn2ccnc2)c2ccc(Cl)cc2Cl)c(Cl)c1 (centres undefined) [MICONAZOLE] | – | – | 3.12 µM (≈ 1.3 µg/mL) | – | – | 1.56 µM (≈ 0.649 µg/mL) | – | – | 3.12 µM (≈ 1.3 µg/mL) | 1.56 µM (≈ 0.649 µg/mL) | – | – | – | – | – | – |
| COc1cccc2cc(/C(C)=N/NC(=S)N[C@@H]3O[C@H](COC(C)=O)[C@@H](OC(C)=O)[C@H](OC(C)=O)[C@H]3OC(C)=O)c(=O)oc12 | – | – | 50 µM (≈ 31.1 µg/mL) | – | – | 6.25 µM (≈ 3.89 µg/mL) | 3.12 µM (≈ 1.94 µg/mL) | 50 µM (≈ 31.1 µg/mL) | 25 µM (≈ 15.5 µg/mL) | 6.25 µM (≈ 3.89 µg/mL) | 1.56 µM (≈ 0.97 µg/mL) | 50 µM (≈ 31.1 µg/mL) | 1.56 µM (≈ 0.97 µg/mL) | – | – | – |
| CC(=O)OC[C@H]1O[C@@H](NC(=S)N/N=C(\C)c2cc3cc(Br)ccc3oc2=O)[C@H](OC(C)=O)[C@@H](OC(C)=O)[C@@H]1OC(C)=O | – | – | 25 µM (≈ 16.8 µg/mL) | 3.12 µM (≈ 2.1 µg/mL) | 25 µM (≈ 16.8 µg/mL) | 6.25 µM (≈ 4.19 µg/mL) | 3.12 µM (≈ 2.1 µg/mL) | 100 µM (≈ 67 µg/mL) | 50 µM (≈ 33.5 µg/mL) | – | 3.12 µM (≈ 2.1 µg/mL) | – | 25 µM (≈ 16.8 µg/mL) | – | – | – |
| CC(=O)OC[C@H]1O[C@@H](NC(=S)N/N=C(\C)c2cc3ccc(C)cc3oc2=O)[C@H](OC(C)=O)[C@@H](OC(C)=O)[C@@H]1OC(C)=O | – | – | > 100 µM | 25 µM (≈ 15.1 µg/mL) | – | > 100 µM | – | 1.56 µM (≈ 0.945 µg/mL) | 3.12 µM (≈ 1.89 µg/mL) | 25 µM (≈ 15.1 µg/mL) | 25 µM (≈ 15.1 µg/mL) | 100 µM (≈ 60.6 µg/mL) | 25 µM (≈ 15.1 µg/mL) | – | – | – |
| C/C(=N\NC(=S)NN[C@@H]1O[C@H](CO)[C@@H](O)[C@H](O)[C@H]1O)c1ccccn1 | – | – | – | – | – | – | – | – | – | – | – | – | – | 2800 nM | 1600 nM | – |
| CC(=O)OC[C@H]1O[C@@H](NC(=S)N/N=C(\C)c2c(C)c3ccccc3oc2=O)[C@H](OC(C)=O)[C@@H](OC(C)=O)[C@@H]1OC(C)=O | – | – | 12.5 µM (≈ 7.57 µg/mL) | – | – | 25 µM (≈ 15.1 µg/mL) | 100 µM (≈ 60.6 µg/mL) | 25 µM (≈ 15.1 µg/mL) | 12.5 µM (≈ 7.57 µg/mL) | 12.5 µM (≈ 7.57 µg/mL) | – | > 100 µM | 50 µM (≈ 30.3 µg/mL) | – | – | – |
| CC(=O)OC[C@H]1O[C@@H](NC(=S)N/N=C(\C)c2cc3ccccc3oc2=O)[C@H](OC(C)=O)[C@@H](OC(C)=O)[C@@H]1OC(C)=O | – | – | 50 µM (≈ 29.6 µg/mL) | 50 µM (≈ 29.6 µg/mL) | 100 µM (≈ 59.2 µg/mL) | 25 µM (≈ 14.8 µg/mL) | 12.5 µM (≈ 7.39 µg/mL) | – | 100 µM (≈ 59.2 µg/mL) | > 100 µM | 50 µM (≈ 29.6 µg/mL) | > 100 µM | 100 µM (≈ 59.2 µg/mL) | – | – | – |
| COc1cc(C/C=N/NC(N)=S)ccc1O[C@@H]1O[C@H](COC(C)=O)[C@H](OC(C)=O)[C@H](OC(C)=O)[C@H]1OC(C)=O | – | – | – | – | – | – | – | – | – | – | – | – | – | – | – | 1200 nM |
| O=c1[nH]cc(F)c(=O)[nH]1 [FLUOROURACIL] | – | – | – | – | – | – | – | – | – | – | – | – | – | 2880 nM | 4750 nM | – |
| CN[C@H](CC(C)C)C(=O)N[C@H]1C(=O)N[C@@H](CC(N)=O)C(=O)N[C@H]2C(=O)N[C@H]3C(=O)N[C@H](C(=O)N[C@H](C(=O)O)c4cc(O)cc(O)c4-c4cc3ccc4O)[C@H](O)c3ccc(c(Cl)c3)Oc3cc2cc(c3O[C@@H]2O[C@H](CO)[C@@H](O)[C@H](O)[C@H]2O[C@H]2C[C@](C)(N)[C@H](O)[C@H](C)O2)Oc2ccc(cc2Cl)[C@H]1O [VANCOMYCIN] | – | – | – | – | – | – | – | 3.12 µM (≈ 4.53 µg/mL) | – | – | – | 1.56 µM (≈ 2.26 µg/mL) | – | – | – | – |
| CC(=O)OC[C@H]1O[C@@H](NC(=S)N/N=C(\C)c2cc3cc(C)ccc3oc2=O)[C@H](OC(C)=O)[C@@H](OC(C)=O)[C@@H]1OC(C)=O | – | – | 25 µM (≈ 15.1 µg/mL) | 12.5 µM (≈ 7.57 µg/mL) | 25 µM (≈ 15.1 µg/mL) | – | 50 µM (≈ 30.3 µg/mL) | 12.5 µM (≈ 7.57 µg/mL) | 3.12 µM (≈ 1.89 µg/mL) | 1.56 µM (≈ 0.945 µg/mL) | 50 µM (≈ 30.3 µg/mL) | – | 100 µM (≈ 60.6 µg/mL) | – | – | – |
| OC(Cn1cncn1)(Cn1cncn1)c1ccc(F)cc1F [FLUCONAZOLE] | – | – | 0.78 µM (≈ 0.239 µg/mL) | – | – | 0.78 µM (≈ 0.239 µg/mL) | – | – | 0.78 µM (≈ 0.239 µg/mL) | 1.56 µM (≈ 0.478 µg/mL) | – | – | – | – | – | – |
| CC(=O)OC[C@H]1O[C@@H](NC(=S)N/N=C(\C)c2cc3cccc([N+](=O)[O-])c3oc2=O)[C@H](OC(C)=O)[C@@H](OC(C)=O)[C@@H]1OC(C)=O | – | – | 12.5 µM (≈ 7.96 µg/mL) | – | > 100 µM | 12.5 µM (≈ 7.96 µg/mL) | 12.5 µM (≈ 7.96 µg/mL) | 0.78 µM (≈ 0.497 µg/mL) | 0.78 µM (≈ 0.497 µg/mL) | 3.12 µM (≈ 1.99 µg/mL) | 25 µM (≈ 15.9 µg/mL) | 12.5 µM (≈ 7.96 µg/mL) | 12.5 µM (≈ 7.96 µg/mL) | – | – | – |
| CC(=O)OC[C@H]1O[C@@H](NC(=S)N/N=C(\C)c2c(C)c3ccc(O)cc3oc2=O)[C@H](OC(C)=O)[C@@H](OC(C)=O)[C@@H]1OC(C)=O | – | – | 0.78 µM (≈ 0.485 µg/mL) | 12.5 µM (≈ 7.77 µg/mL) | 3.12 µM (≈ 1.94 µg/mL) | 1.56 µM (≈ 0.97 µg/mL) | 1.56 µM (≈ 0.97 µg/mL) | 0.78 µM (≈ 0.485 µg/mL) | > 100 µM | 3.12 µM (≈ 1.94 µg/mL) | 100 µM (≈ 62.2 µg/mL) | 100 µM (≈ 62.2 µg/mL) | 100 µM (≈ 62.2 µg/mL) | – | – | – |
| O=C(O)c1cn(C2CC2)c2cc(N3CCNCC3)c(F)cc2c1=O [CIPROFLOXACIN] | – | – | – | 1.56 µM (≈ 0.517 µg/mL) | 1.56 µM (≈ 0.517 µg/mL) | – | 3.12 µM (≈ 1.04 µg/mL) | 3.12 µM (≈ 1.04 µg/mL) | – | – | 1.56 µM (≈ 0.517 µg/mL) | 3.12 µM (≈ 1.04 µg/mL) | 1.56 µM (≈ 0.517 µg/mL) | – | – | – |
